From patent US9163007B2, “5-substituted indazoles as kinase inhibitors” (AbbVie Inc., priority 2007, dated 2015)
Like-named read-outs stand apart in the source and are kept apart here.

Key:
[1] = molecular target: Cdc7/Dbf4 (Homo sapiens (Human), UniProt O00311); test: Cdc7 Inhibition Assay; type: biochemical;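 also: reaction mixtures incubated 30 min on streptavidin-coated plates, then quantified by scintillation counting, with inhibition curves fitted by non-linear regression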
Method: The reactions were incubated for 30 minutes on streptavidin-coated plates, washed, and quantified using a TopCount scintillation plate reader (Packard). IC50 values are determined via non-linear regression fitting of the data.

[2] = tested on: HCT-116 cells; test: AlamarBlue Cell Viability Assays; type: cell-based; settings: Homo sapiens, treated 72 hours
Method: AlamarBlue Cell Viability Assays
HCT-116 cells (3,000/well; 96-well format) were treated for 72 hours with increasing concentrations of compounds (0.01-30 μM in half-log increments). The cells were then incubated in fresh media with 10% AlamarBlue reagent (Invitrogen #DAL1100). AlamarBlue reactions were incubated according to the manufacturer's instructions (approximately 4 hours) and then analyzed using an fmax fluorescence microplate reader (Molecular Devices) using excitation/emission wavelengths of 544/595 nm. Data were analyzed using SOFTmax PRO software provided by the manufacturer.

[3] = tested on: phospho-MCM2 Ser53 in HCT-116 cells; test: Phospho-MCM2 ELISA; type: cell-based; settings: Homo sapiens, treated 6 hours
Method: HCT-116 cells (20,000/well; 96-well format) were treated for 6 hours with increasing concentrations of compounds (0.01-10 μM in half-log increments). After removing the medium/inhibitor, the cells were frozen for 5 minutes and treated on ice with 20 μL of lysis buffer (Invitrogen #FNN0011) for 30 minutes. 80 μL of cold 2% BSA (in PBS) were then added to each well before transferring 80 μL to MCM2 antibody-coated plates (Bethyl #A300-122A, lot A300-122A-1). The plates were incubated overnight at 4° C., washed, and then incubated with the sandwich antibody (1:100 rabbit anti-human phospho-MCM2 Ser53; Bethyl #A300-756A, lot A300-756A-2) for 2 hours at room temperature. After another series of washes the samples are incubated for 1 hour with detection antibody (XSA-grade goat anti-rabbit-HRP, KPL #074-15-061, lot 50884, diluted to 2 μg/mL in 2% BSA). Plates were washed, developed using luminescence substrate (SuperSignal Pico for ELISA, Pierce #37069, Lot. HB101408), and read on a Molecular Devices M5 luminometer.

[4] = 11 data point, read-out: Ki (μM) 11 data point
[5] = 6 data point, read-out: Ki (μM) 6 data point

Sequence of Cdc7/Dbf4 (O00311 whole entry): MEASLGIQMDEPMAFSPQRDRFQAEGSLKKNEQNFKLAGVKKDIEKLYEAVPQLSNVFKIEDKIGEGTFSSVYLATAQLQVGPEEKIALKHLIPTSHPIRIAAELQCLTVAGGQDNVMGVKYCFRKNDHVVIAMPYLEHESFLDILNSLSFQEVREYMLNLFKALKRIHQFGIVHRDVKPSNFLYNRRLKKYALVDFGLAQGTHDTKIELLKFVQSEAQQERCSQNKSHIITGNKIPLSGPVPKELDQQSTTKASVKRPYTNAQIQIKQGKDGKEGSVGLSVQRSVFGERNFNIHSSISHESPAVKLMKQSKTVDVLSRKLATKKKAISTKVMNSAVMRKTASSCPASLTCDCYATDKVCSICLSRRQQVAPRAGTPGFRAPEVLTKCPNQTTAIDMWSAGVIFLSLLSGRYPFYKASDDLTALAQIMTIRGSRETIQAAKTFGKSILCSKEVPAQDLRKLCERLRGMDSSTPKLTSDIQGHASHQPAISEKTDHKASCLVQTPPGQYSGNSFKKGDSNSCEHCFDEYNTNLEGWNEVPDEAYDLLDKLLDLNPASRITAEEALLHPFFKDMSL
Sequence of Cdc7/Dbf4 (Q9UBU7 whole entry partner): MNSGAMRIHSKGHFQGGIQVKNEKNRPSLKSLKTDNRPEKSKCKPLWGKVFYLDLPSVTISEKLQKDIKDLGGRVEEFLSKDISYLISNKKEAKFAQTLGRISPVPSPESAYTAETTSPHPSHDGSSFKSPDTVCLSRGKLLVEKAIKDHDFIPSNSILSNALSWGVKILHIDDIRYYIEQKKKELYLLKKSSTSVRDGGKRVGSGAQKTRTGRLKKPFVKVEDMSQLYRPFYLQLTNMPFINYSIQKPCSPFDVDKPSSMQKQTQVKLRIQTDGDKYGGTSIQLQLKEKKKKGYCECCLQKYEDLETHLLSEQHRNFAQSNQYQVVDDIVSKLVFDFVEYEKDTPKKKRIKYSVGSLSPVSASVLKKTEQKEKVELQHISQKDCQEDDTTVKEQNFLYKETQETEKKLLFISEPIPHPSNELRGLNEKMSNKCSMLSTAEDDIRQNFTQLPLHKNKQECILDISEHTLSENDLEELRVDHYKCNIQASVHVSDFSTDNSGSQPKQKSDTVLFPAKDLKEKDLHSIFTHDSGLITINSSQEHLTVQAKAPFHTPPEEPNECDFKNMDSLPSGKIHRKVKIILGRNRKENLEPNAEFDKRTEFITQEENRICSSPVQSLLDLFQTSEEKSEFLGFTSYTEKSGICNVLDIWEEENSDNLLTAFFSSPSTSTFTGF

SMILES | Ki [1, 4] | EC50 [2] | EC50 [3] | Ki [1, 5]
CCS(=O)(=O)Nc1n[nH]c2ccc(-c3nnn(Cc4ccccc4)c3C3CC3)cc12 [Example 216, N-[5-(1-benzyl-5-cyclopropyl-1H-1,2,3-triazol-4-yl)-1H-indazol-3-yl]ethanesulfonamide] | 0.12 µM | 19.1 µM |  | 
Nc1n[nH]c2ccc(-c3nnn(Cc4ccccc4)c3-c3cccc(N4CCOCC4)c3)cc12 [Example 194, 5-[1-benzyl-5-(3-morpholin-4-ylphenyl)-1H-1,2,3-triazol-4-yl]-1H-indazol-3-amine] | 0.068 µM | 4.39 µM | > 10 µM | 
Nc1n[nH]c2ccc(-c3nnn(Cc4ccccc4)c3C3CCCCC3)cc12 [Example 402, 5-(1-benzyl-5-cyclohexyl-1H-1,2,3-triazol-4-yl)-1H-indazol-3-amine] | 0.037 µM | 0.037 µM |  | 
Cc1n[nH]c2ccc(-c3nnn(Cc4ccccc4)c3-c3ccc(F)cc3)cc12 [Example 408, 5-[1-benzyl-5-(4-fluorophenyl)-1H-1,2,3-triazol-4-yl]-3-methyl-1H-indazole] |  | > 30 µM | 1.96 µM | 
Nc1n[nH]c2ccc(-c3nnn(Cc4ccccc4)c3-c3ccccc3)cc12 [Example 102, 5-(1-benzyl-5-phenyl-1H-1,2,3-triazol-4-yl)-1H-indazol-3-amine] |  | 3.19 µM | 3.13 µM | 
CC(=O)N1CCN(C(=O)c2c(-c3ccc4[nH]ncc4c3)nnn2Cc2ccccc2)CC1 [Example 255, 5-{5-[(4-acetylpiperazin-1-yl)carbonyl]-1-benzyl-1H-1,2,3-triazol-4-yl}-1H-indazole] |  |  |  | > 1.23 µM
O=C(Nc1n[nH]c2ccc(-c3nnn(Cc4ccccc4)c3C3CC3)cc12)c1cccc(Cl)c1 [Example 224, N-[5-(1-benzyl-5-cyclopropyl-1H-1,2,3-triazol-4-yl)-1H-indazol-3-yl]-3-chlorobenzamide] |  | 2.42 µM | > 10 µM | 
Nc1n[nH]c2ccc(-c3nnn(Cc4ccccc4)c3-c3ccc(F)cc3)cc12 [Example 151, 5-[1-benzyl-5-(4-fluorophenyl)-1H-1,2,3-triazol-4-yl]-1H-indazol-3-amine] |  | 8.64 µM | 3.76 µM | 
O=C(c1c(-c2ccc3[nH]ncc3c2)nnn1Cc1ccccc1)N1CCCCC1 [Example 169, 5-[1-benzyl-5-(piperidin-1-ylcarbonyl)-1H-1,2,3-triazol-4-yl]-1H-indazole] |  |  |  | > 1.23 µM
Clc1ccc(Cn2cc(-c3ccc4[nH]ncc4c3)nn2)c(Cl)c1 [Example 32, 5-[1-(2,4-dichlorobenzyl)-1H-1,2,3-triazol-4-yl]-1H-indazole] | 0.0127 µM | > 30 µM |  | 
Cc1c(-c2ccc3[nH]nc(N)c3c2)nnn1Cc1ccccc1 [Example 123, 5-(1-benzyl-5-methyl-1H-1,2,3-triazol-4-yl)-1H-indazol-3-amine] |  | 3.86 µM | > 10 µM | 
Cc1ccccc1-c1c(-c2ccc3[nH]nc(N)c3c2)nnn1Cc1ccccc1 [Example 163, 5-[1-benzyl-5-(2-methylphenyl)-1H-1,2,3-triazol-4-yl]-1H-indazol-3-amine] |  | 0.928 µM | 9.43 µM | 
CC1CN(C(=O)c2c(-c3ccc4[nH]ncc4c3)nnn2Cc2ccccc2)CC(C)O1 (stereo not shown) [Example 254, 5-{1-benzyl-5-[(2,6-dimethylmorpholin-4-yl)carbonyl]-1H-1,2,3-triazol-4-yl}-1H-indazole] |  |  |  | > 1.23 µM
c1ccc(-n2cc(-c3ccc4[nH]ncc4c3)nn2)cc1 [Example 418, 5-(1-phenyl-1H-1,2,3-triazol-4-yl)-1H-indazole] | 0.192 µM |  |  | 
COc1ccc(NC(=O)Nc2n[nH]c3ccc(-c4nnn(Cc5ccccc5)c4-c4ccccc4)cc23)cc1 [Example 200, N-[5-(1-benzyl-5-phenyl-1H-1,2,3-triazol-4-yl)-1H-indazol-3-yl]-N′-(4-methoxyphenyl)urea] | 0.013 µM | 13.5 µM |  | 
O=C(c1c(-c2ccc3[nH]ncc3c2)nnn1Cc1ccccc1)N1CCOCC1 [Example 172, 5-[1-benzyl-5-(morpholin-4-ylcarbonyl)-1H-1,2,3-triazol-4-yl]-1H-indazole] |  |  |  | > 1.23 µM
O=S(=O)(Nc1n[nH]c2ccc(-c3nnn(Cc4ccccc4)c3-c3ccccc3)cc12)c1ccccc1 [Example 199, N-[5-(1-benzyl-5-phenyl-1H-1,2,3-triazol-4-yl)-1H-indazol-3-yl]benzenesulfonamide] | 0.34 µM |  |  | 
O=C(Nc1ccccc1)c1c(-c2ccc3[nH]ncc3c2)nnn1Cc1ccccc1 [Example 243, 1-benzyl-4-(1H-indazol-5-yl)-N-phenyl-1H-1,2,3-triazole-5-carboxamide] |  |  |  | > 1.23 µM
O=S(=O)(Nc1n[nH]c2ccc(-c3nnn(Cc4ccccc4)c3C3CC3)cc12)c1ccc(Cl)cc1 [Example 220, N-[5-(1-benzyl-5-cyclopropyl-1H-1,2,3-triazol-4-yl)-1H-indazol-3-yl]-4-chlorobenzenesulfonamide] | 0.98 µM |  |  | 
O=S(=O)(Nc1n[nH]c2ccc(-c3nnn(Cc4ccccc4)c3C3CC3)cc12)c1ccccc1 [Example 217, N-[5-(1-benzyl-5-cyclopropyl-1H-1,2,3-triazol-4-yl)-1H-indazol-3-yl]benzenesulfonamide] | 1 µM |  |  | 
c1ccc(CNc2n[nH]c3ccc(-c4nnn(Cc5ccccc5)c4C4CC4)cc23)cc1 [Example 207, N-benzyl-5-(1-benzyl-5-cyclopropyl-1H-1,2,3-triazol-4-yl)-1H-indazol-3-amine] |  |  |  | 0.046 µM

Second part, the compound after the results:

Ki [1, 4] | EC50 [2] | EC50 [3] | Ki [1, 5] | SMILES
 | 4.54 µM | > 10 µM |  | Nc1n[nH]c2ccc(-c3cn(Cc4ccccc4)nn3)cc12 [Example 62, 5-(1-benzyl-1H-1,2,3-triazol-4-yl)-1H-indazol-3-amine]
0.41 µM |  |  |  | CCS(=O)(=O)Nc1n[nH]c2ccc(-c3cn(Cc4ccccc4)nn3)cc12 [Example 320, N-[5-(1-benzyl-1H-1,2,3-triazol-4-yl)-1H-indazol-3-yl]ethanesulfonamide]
 | 0.315 µM | 2.99 µM |  | O=C(Nc1n[nH]c2ccc(-c3cn(Cc4ccccc4)nn3)cc12)c1cccc(F)c1 [Example 395, N-[5-(1-benzyl-1H-1,2,3-triazol-4-yl)-1H-indazol-3-yl]-3-fluorobenzamide]
0.35 µM |  |  |  | c1ccc(Cn2cc(-c3ccc4[nH]nc(NCC5CCCCC5)c4c3)nn2)cc1 [Example 417, 5-(1-benzyl-1H-1,2,3-triazol-4-yl)-N-(cyclohexylmethyl)-1H-indazol-3-amine]
0.052 µM |  |  |  | COc1ccc(CNc2n[nH]c3ccc(-c4cn(Cc5ccccc5)nn4)cc23)cc1 [Example 413, 5-(1-benzyl-1H-1,2,3-triazol-4-yl)-N-(4-methoxybenzyl)-1H-indazol-3-amine]
0.57 µM |  |  |  | c1ccc(Cn2cc(-c3ccc4[nH]nc(NCC5CC5)c4c3)nn2)cc1 [Example 321, 5-(1-benzyl-1H-1,2,3-triazol-4-yl)-N-(cyclopropylmethyl)-1H-indazol-3-amine]
0.23 µM |  |  |  | CN1CCN(c2n[nH]c3ccc(-c4cn(Cc5ccccc5)nn4)cc23)CC1 [Example 400, 5-(1-benzyl-1H-1,2,3-triazol-4-yl)-3-(4-methylpiperazin-1-yl)-1H-indazole]
0.681 µM |  |  |  | CN(C)C(=O)c1n[nH]c2ccc(-c3cn(Cc4ccccc4)nn3)cc12 [Example 396, 5-(1-benzyl-1H-1,2,3-triazol-4-yl)-N,N-dimethyl-1H-indazole-3-carboxamide]
0.0811 µM | 24.8 µM |  |  | COC(=O)c1n[nH]c2ccc(-c3cn(Cc4ccccc4)nn3)cc12 [Example 397, methyl 5-(1-benzyl-1H-1,2,3-triazol-4-yl)-1H-indazole-3-carboxylate]
0.065 µM |  |  |  | N#Cc1ccc(CNc2n[nH]c3ccc(-c4cn(Cc5ccccc5)nn4)cc23)cc1 [Example 415, 4-({[5-(1-benzyl-1H-1,2,3-triazol-4-yl)-1H-indazol-3-yl]amino}methyl)benzonitrile]
0.489 µM |  |  |  | Cn1ccnc1-c1n[nH]c2ccc(-c3cn(Cc4ccccc4)nn3)cc12 [Example 398, 5-(1-benzyl-1H-1,2,3-triazol-4-yl)-3-(1-methyl-1H-imidazol-2-yl)-1H-indazole]
0.258 µM |  |  |  | c1ccc(Cn2cc(-c3ccc4[nH]nc(-c5nccs5)c4c3)nn2)cc1 [Example 404, 5-(1-benzyl-1H-1,2,3-triazol-4-yl)-3-(1,3-thiazol-2-yl)-1H-indazole]
0.18 µM |  |  |  | O=C1CCCN1c1n[nH]c2ccc(-c3cn(Cc4ccccc4)nn3)cc12 [Example 323, 1-[5-(1-benzyl-1H-1,2,3-triazol-4-yl)-1H-indazol-3-yl]pyrrolidin-2-one]
 | 0.76 µM | 1.97 µM |  | O=C(Nc1n[nH]c2ccc(-c3cn(Cc4ccccc4)nn3)cc12)c1ccccc1 [Example 73, N-[5-(1-benzyl-1H-1,2,3-triazol-4-yl)-1H-indazol-3-yl]benzamide]
0.14 µM |  |  |  | Clc1ccc(CNc2n[nH]c3ccc(-c4cn(Cc5ccccc5)nn4)cc23)cc1 [Example 412, 5-(1-benzyl-1H-1,2,3-triazol-4-yl)-N-(4-chlorobenzyl)-1H-indazol-3-amine]
